# Test results published in ChEMBL document CHEMBL4507283, “Data for DCP probe BI-1935” (2021).
# What was measured:
# [1] = molecular target: Non-receptor tyrosine-protein kinase TYK2 (Homo sapiens) (UniProt P29597); details: Compound concentration 1000.0 nM
# [2] = system: Tyrosine-protein kinase ABL1 (Homo sapiens), P00519 [Q252H]; details: Compound concentration 1000.0 nM
# [3] = molecular target: 5'-AMP-activated protein kinase catalytic subunit alpha-2 (Homo sapiens) (UniProt P54646); details: Compound concentration 1000.0 nM
# Chain of 5'-AMP-activated protein kinase catalytic subunit alpha-2 (Homo sapiens) (P54646 whole entry, looked up): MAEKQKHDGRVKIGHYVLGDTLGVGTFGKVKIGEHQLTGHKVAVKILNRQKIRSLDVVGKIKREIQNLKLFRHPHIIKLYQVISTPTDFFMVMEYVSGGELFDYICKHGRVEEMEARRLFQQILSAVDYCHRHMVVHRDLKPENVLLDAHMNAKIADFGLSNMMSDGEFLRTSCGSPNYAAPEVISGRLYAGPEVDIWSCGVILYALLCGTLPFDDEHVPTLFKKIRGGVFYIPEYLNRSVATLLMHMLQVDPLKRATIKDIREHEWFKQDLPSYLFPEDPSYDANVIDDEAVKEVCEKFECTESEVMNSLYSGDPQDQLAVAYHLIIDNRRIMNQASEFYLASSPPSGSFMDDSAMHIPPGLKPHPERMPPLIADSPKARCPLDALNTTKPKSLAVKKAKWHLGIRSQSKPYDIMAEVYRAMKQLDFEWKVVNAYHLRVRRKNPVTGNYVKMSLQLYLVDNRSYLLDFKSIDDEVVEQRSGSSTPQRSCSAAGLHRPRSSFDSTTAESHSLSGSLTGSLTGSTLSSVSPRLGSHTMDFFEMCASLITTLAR
# [4] = molecular target: Sodium/potassium-transporting ATPase subunit alpha-1 (Sus scrofa) (UniProt P05024); test: ATP NA+/K+PI Eurofins-Panlabs selectivity data (BI); details: Compound concentration 10.0 uM
# [5] = system: Phosphatidylinositol 4,5-bisphosphate 3-kinase catalytic subunit alpha isoform (Homo sapiens), P42336 [H1047L]; details: Compound concentration 1000.0 nM
# [6] = molecular target: Death-associated protein kinase 3 (Homo sapiens) (UniProt O43293); details: Compound concentration 1000.0 nM
# [7] = molecular target: Tyrosine-protein kinase BTK (Homo sapiens) (UniProt Q06187); details: Compound concentration 1000.0 nM
# Chain of Tyrosine-protein kinase BTK (Homo sapiens) (Q06187 whole entry): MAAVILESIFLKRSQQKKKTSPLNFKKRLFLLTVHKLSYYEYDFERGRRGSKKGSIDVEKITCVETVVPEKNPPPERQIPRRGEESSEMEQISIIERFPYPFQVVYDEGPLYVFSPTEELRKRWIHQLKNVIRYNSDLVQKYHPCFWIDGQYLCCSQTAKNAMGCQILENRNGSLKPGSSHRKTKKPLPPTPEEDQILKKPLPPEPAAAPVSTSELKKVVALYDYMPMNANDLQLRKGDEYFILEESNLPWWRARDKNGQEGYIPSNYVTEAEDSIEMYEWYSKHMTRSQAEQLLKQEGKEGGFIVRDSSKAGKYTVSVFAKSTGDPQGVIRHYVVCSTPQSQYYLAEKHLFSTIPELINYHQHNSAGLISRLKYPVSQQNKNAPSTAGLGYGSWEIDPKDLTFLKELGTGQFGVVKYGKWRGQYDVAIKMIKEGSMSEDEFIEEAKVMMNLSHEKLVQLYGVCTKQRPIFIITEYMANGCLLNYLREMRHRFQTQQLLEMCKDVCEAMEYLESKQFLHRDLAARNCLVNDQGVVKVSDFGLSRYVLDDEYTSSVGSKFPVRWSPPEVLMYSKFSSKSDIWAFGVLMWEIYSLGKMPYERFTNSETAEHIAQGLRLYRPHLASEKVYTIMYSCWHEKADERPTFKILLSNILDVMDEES
# [8] = molecular target: Phospholipase A2 (Sus scrofa) (UniProt A0A8D1VEY7); test: PLA2 Eurofins-Panlabs selectivity data (BI); details: Compound concentration 10.0 uM
# [9] = system: Mast/stem cell growth factor receptor Kit (Homo sapiens), P10721 [V559D,T670I]; details: Compound concentration 1000.0 nM
# [10] = molecular target: Testis-specific serine/threonine-protein kinase 3 (Homo sapiens) (UniProt Q96PN8); details: Compound concentration 1000.0 nM
# [11] = molecular target: Tyrosine-protein kinase receptor Tie-1 (Homo sapiens) (UniProt P35590); details: Compound concentration 1000.0 nM
# [12] = molecular target: Small conductance calcium-activated potassium channel protein 1 (Rattus norvegicus) (UniProt P70606); test: K+/SKCA Eurofins-Panlabs selectivity data (BI); details: Compound concentration 10.0 uM
# [13] = molecular target: Serine/threonine-protein kinase PAK 3 (Homo sapiens) (UniProt O75914); details: Compound concentration 1000.0 nM
# [14] = molecular target: Tyrosine-protein kinase JAK3 (Homo sapiens) (UniProt P52333); details: Compound concentration 1000.0 nM
# [15] = molecular target: Serine/threonine-protein kinase WNK2 (Homo sapiens) (UniProt Q9Y3S1); details: Compound concentration 1000.0 nM
# Chain of Serine/threonine-protein kinase WNK2 (Homo sapiens) (Q9Y3S1 whole entry): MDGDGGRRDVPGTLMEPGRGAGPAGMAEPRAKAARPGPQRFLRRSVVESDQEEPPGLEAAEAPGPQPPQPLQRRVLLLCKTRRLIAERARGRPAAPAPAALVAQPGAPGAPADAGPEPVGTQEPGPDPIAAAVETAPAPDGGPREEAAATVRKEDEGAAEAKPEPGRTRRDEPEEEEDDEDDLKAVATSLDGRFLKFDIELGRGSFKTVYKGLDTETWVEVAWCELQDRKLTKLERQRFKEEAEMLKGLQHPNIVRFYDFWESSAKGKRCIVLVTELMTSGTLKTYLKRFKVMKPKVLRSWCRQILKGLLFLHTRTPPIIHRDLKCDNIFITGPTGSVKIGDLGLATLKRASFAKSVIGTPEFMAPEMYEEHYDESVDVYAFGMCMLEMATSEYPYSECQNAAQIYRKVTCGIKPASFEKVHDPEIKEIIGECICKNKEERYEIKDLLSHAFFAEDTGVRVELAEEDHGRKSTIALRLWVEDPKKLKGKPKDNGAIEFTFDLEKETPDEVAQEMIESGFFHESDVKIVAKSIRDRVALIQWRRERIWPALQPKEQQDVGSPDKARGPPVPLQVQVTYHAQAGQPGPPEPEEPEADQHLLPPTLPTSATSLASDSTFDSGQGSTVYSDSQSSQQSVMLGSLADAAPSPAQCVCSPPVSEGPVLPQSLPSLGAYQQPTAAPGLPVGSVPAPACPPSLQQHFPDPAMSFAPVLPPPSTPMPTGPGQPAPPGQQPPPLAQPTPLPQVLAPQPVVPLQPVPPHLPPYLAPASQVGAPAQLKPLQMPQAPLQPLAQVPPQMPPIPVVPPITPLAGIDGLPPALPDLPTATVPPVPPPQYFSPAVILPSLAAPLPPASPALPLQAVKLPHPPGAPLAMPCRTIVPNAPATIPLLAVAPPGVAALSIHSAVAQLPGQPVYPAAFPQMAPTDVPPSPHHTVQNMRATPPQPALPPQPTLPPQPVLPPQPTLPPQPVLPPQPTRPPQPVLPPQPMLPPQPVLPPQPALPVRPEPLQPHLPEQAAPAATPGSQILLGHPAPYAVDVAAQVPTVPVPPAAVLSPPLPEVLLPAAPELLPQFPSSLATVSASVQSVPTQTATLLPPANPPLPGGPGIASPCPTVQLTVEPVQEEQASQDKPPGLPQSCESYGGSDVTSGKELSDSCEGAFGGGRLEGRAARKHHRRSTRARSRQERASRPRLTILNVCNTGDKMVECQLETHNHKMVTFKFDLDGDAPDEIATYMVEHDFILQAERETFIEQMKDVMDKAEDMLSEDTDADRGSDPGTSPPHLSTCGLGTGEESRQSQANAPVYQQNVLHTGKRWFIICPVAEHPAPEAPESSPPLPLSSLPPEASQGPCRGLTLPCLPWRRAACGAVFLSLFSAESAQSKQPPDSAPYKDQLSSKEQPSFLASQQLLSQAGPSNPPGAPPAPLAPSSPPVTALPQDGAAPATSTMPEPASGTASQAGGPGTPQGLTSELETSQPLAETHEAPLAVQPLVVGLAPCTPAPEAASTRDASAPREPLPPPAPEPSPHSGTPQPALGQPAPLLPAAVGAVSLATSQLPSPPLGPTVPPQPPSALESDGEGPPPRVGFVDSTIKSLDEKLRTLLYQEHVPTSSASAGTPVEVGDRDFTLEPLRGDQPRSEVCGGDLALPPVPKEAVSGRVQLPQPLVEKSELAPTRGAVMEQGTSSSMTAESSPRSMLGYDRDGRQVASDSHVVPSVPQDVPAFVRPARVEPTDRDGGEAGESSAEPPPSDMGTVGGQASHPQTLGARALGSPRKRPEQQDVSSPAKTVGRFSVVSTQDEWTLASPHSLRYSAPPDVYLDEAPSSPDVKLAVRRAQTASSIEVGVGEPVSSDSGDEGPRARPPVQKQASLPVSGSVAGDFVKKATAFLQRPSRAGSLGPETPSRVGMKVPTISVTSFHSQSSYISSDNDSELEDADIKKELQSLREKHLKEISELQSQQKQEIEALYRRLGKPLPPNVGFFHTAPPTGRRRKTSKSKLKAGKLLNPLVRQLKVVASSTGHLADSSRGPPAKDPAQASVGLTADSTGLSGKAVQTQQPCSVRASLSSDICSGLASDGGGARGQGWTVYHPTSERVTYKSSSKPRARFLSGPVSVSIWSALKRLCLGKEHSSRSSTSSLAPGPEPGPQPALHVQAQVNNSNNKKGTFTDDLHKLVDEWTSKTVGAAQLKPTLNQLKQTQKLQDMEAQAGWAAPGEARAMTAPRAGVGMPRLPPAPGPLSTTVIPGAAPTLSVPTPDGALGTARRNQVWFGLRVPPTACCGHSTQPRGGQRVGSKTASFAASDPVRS
# [16] = molecular target: Cannabinoid receptor 1 (Homo sapiens) (UniProt P21554); test: CB1/H Eurofins-Panlabs selectivity data (BI); details: Compound concentration 10.0 uM
# [17] = molecular target: Ephrin type-B receptor 4 (Homo sapiens) (UniProt P54760); details: Compound concentration 1000.0 nM
# [18] = molecular target: Tyrosine-protein kinase receptor TYRO3 (Homo sapiens) (UniProt Q06418); details: Compound concentration 1000.0 nM
# [19] = molecular target: Ribosomal protein S6 kinase alpha-6 (Homo sapiens) (UniProt Q9UK32); details: Compound concentration 1000.0 nM
# [20] = molecular target: Membrane-associated tyrosine- and threonine-specific cdc2-inhibitory kinase (Homo sapiens) (UniProt Q99640); details: Compound concentration 1000.0 nM
# [21] = molecular target: Interferon-induced, double-stranded RNA-activated protein kinase (Homo sapiens) (UniProt P19525); details: Compound concentration 1000.0 nM
# [22] = molecular target: RAC-alpha serine/threonine-protein kinase (Homo sapiens) (UniProt P31749); details: Compound concentration 1000.0 nM
# [23] = molecular target: Ephrin type-B receptor 1 (Homo sapiens) (UniProt P54762); details: Compound concentration 1000.0 nM
# [24] = molecular target: Serine/threonine-protein kinase BRSK1 (Homo sapiens) (UniProt Q8TDC3); details: Compound concentration 1000.0 nM
# [25] = molecular target: 5-hydroxytryptamine receptor 7 (Homo sapiens) (UniProt P34969); details: Compound concentration 10.0 uM
# [26] = molecular target: Cathepsin G (Homo sapiens) (UniProt P08311); test: PEPCATHEPSG Eurofins-Panlabs selectivity data (BI); details: Compound concentration 10.0 uM
# [27] = molecular target: Dual specificity mitogen-activated protein kinase kinase 6 (Homo sapiens) (UniProt P52564); details: Compound concentration 1000.0 nM
# Chain of Dual specificity mitogen-activated protein kinase kinase 6 (Homo sapiens) (P52564 whole entry): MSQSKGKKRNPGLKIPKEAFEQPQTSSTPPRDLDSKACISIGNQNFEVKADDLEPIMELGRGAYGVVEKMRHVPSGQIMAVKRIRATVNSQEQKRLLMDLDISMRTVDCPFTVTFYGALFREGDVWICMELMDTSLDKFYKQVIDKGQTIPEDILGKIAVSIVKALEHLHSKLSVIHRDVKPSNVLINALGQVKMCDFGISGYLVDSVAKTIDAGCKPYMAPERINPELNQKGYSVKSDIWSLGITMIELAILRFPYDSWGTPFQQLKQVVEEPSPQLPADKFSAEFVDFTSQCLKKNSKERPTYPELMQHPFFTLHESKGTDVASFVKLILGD
# [28] = molecular target: Dual specificity mitogen-activated protein kinase kinase 2 (Homo sapiens) (UniProt P36507); details: Compound concentration 1000.0 nM
# [29] = molecular target: Muscarinic acetylcholine receptor M3 (Homo sapiens) (UniProt P20309); details: Compound concentration 10.0 uM
# [30] = system: Tyrosine-protein kinase ABL1 (Homo sapiens), P00519 [E255K]; details: Compound concentration 1000.0 nM
# [31] = molecular target: Phosphatidylinositol 4,5-bisphosphate 3-kinase catalytic subunit delta isoform (Homo sapiens) (UniProt O00329); details: Compound concentration 1000.0 nM
# [32] = molecular target: Endothelin-converting enzyme 1 (Homo sapiens) (UniProt P42892); test: ECE-1 (HU) Eurofins-Panlabs selectivity data (BI); details: Compound concentration 10.0 uM
# [33] = molecular target: Serine/threonine-protein kinase ULK1 (Homo sapiens) (UniProt O75385); details: Compound concentration 1000.0 nM
# [34] = molecular target: B2 bradykinin receptor (Homo sapiens) (UniProt P30411); test: B2/HU Eurofins-Panlabs selectivity data (BI); details: Compound concentration 10.0 uM
# [35] = molecular target: Rho-associated protein kinase 1 (Homo sapiens) (UniProt Q13464); details: Compound concentration 1000.0 nM
# [36] = system: Proto-oncogene tyrosine-protein kinase receptor Ret (Homo sapiens), P07949 [M918T]; details: Compound concentration 1000.0 nM
# [37] = molecular target: NT-3 growth factor receptor (Homo sapiens) (UniProt Q16288); details: Compound concentration 1000.0 nM
# [38] = molecular target: Death-associated protein kinase 1 (Homo sapiens) (UniProt P53355); details: Compound concentration 1000.0 nM
# [39] = molecular target: Serine/threonine-protein kinase/endoribonuclease IRE1 (Homo sapiens) (UniProt O75460); details: Compound concentration 1000.0 nM
# [40] = molecular target: Tyrosine-protein kinase Lck (Homo sapiens) (UniProt P06239); details: Compound concentration 1000.0 nM
# [41] = molecular target: Fibroblast growth factor receptor 1 (Homo sapiens) (UniProt P11362); details: Compound concentration 1000.0 nM
# [42] = molecular target: Ephrin type-A receptor 7 (Homo sapiens) (UniProt Q15375); details: Compound concentration 1000.0 nM
# [43] = system: Tyrosine-protein kinase ABL1 (Homo sapiens), P00519 [F317I]; details: Compound concentration 1000.0 nM
# [44] = system: Fibroblast growth factor receptor 3 (Homo sapiens), P22607 [G697C]; details: Compound concentration 1000.0 nM
# [45] = molecular target: Serine/threonine-protein kinase MARK1 (Homo sapiens) (UniProt Q9P0L2); details: Compound concentration 1000.0 nM
# Chain of Non-receptor tyrosine-protein kinase TYK2 (Homo sapiens) (P29597 whole entry): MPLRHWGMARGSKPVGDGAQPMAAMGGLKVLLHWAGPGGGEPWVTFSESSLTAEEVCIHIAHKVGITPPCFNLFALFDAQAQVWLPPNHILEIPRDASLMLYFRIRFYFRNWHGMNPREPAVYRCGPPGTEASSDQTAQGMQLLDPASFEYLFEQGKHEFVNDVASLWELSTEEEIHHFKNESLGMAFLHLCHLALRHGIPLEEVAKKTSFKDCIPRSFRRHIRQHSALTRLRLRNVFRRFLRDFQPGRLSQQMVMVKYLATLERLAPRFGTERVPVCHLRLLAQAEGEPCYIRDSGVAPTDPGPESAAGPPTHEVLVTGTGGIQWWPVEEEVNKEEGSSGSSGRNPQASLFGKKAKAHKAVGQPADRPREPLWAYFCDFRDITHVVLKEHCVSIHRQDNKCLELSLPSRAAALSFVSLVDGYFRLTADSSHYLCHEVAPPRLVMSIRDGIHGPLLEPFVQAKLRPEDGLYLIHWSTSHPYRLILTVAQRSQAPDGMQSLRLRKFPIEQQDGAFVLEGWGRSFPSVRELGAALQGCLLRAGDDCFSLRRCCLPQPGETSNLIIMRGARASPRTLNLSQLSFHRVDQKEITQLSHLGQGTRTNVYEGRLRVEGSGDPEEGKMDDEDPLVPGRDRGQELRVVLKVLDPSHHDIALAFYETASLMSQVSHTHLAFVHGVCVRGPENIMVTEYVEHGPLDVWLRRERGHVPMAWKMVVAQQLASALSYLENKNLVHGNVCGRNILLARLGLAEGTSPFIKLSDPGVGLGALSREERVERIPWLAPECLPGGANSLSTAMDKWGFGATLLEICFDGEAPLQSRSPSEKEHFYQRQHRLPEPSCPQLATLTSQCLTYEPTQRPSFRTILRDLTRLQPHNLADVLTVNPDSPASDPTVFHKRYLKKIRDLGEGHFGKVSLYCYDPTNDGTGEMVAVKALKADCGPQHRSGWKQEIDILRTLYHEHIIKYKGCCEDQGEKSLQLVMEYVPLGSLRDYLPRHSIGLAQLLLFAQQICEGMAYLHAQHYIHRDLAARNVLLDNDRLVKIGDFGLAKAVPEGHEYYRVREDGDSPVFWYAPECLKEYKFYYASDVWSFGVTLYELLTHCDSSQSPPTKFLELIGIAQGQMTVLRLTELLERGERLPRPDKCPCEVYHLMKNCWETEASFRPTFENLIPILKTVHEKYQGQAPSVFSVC
smiles,measurement,setting,value
CCOCCn1cc(C(=O)Nc2ccc(-n3nc(-c4cccnc4)cc3C(F)(F)F)cn2)ccc1=O [BI 1935],residual activity,[1],100%
same,residual activity,[2],83%
same,residual activity,[3],100%
same,residual activity,[4],94%
same,residual activity,[5],93%
same,residual activity,[6],91%
same,residual activity,[7],79%
same,residual activity,[8],96%
same,residual activity,[9],100%
same,residual activity,[10],100%
same,residual activity,[11],81%
same,residual activity,[12],106%
same,residual activity,[13],100%
same,residual activity,[14],100%
same,residual activity,[15],64%
same,residual activity,[16],81%
same,residual activity,[17],100%
same,residual activity,[18],0%
same,residual activity,[19],100%
same,residual activity,[20],100%
same,residual activity,[21],100%
same,residual activity,[22],95%
same,residual activity,[23],100%
same,residual activity,[24],100%
same,inhibition,[25],-4.21%
same,residual activity,[26],117%
same,residual activity,[27],100%
same,residual activity,[28],94%
same,inhibition,[29],10.2%
same,residual activity,[30],69%
same,residual activity,[31],100%
same,residual activity,[32],84%
same,residual activity,[33],76%
same,residual activity,[34],100%
same,residual activity,[35],74%
same,residual activity,[36],91%
same,residual activity,[37],100%
same,residual activity,[38],100%
same,residual activity,[39],87%
same,residual activity,[40],100%
same,residual activity,[41],100%
same,residual activity,[42],98%
same,residual activity,[43],74%
same,residual activity,[44],100%
same,residual activity,[45],100%
